# Experimental data: patent US7659252B2, “Transdermal delivery peptides and method of use thereof” (Novomed Technologies, Inc. (Shanghai), priority 2005, dated 2010)
# Tests used:
# male Sprague-Dawley rats [1] = experiment: Transdermal PT-141 delivery: penile erections, chasing, mounting; format: in vivo, rat; conditions: cream, 1 h observation
# Experimental: (§1) All behavioral studies were performed from 9:00 am to 4:00 pm at 24±1° C. While the animals were anesthetized with Urethane, the hair in an area of approximately 3.0 cm×3.0 cm in the interscapular region was carefully trimmed using scissors, with caution not to damage the skin (rats with any visible sign of skin damage were not used). Rats were allowed to recover for at least 24 hours before the experiments. One hundred ul cream containing indicated amounts of PT-141 was placed on the exposed skin and spread evenly using the side of a pipet tip.
# Testing rats were divided into four groups with each group contain 6 rats.
# Immediately after administration, rats were placed into individual polystyrene cages (32 cm long, 30 cm wide, 30 cm high) for behavioral observation. […] According to methods described by Berendsen and Broekkamp (1987, Eur. J. Pharmacol. 135(3):279-87), a penile erection was present when the following is observed: repeated pelvic thrust immediately followed by an upright position, an emerging engorged penis which the rat licks while eating the ejaculate. In addition, chasing was observed when the male moves forward along the female's side with its mouth licking the female's genital area, while mounting was present when the male's both front feet are off the ground and plant on the female's rump without ejaculation (Naby et al., 1992, Horm. Behav. 26:24; Randy et al., 1995, Nature 378:383).
# Male Wistar rats = experiment: Phage delivery across trimmed abdominal skin, phage titre in tail-vein blood; format: in vivo, rat
# Experimental: Phage delivery: Male Wistar rats (180 g to 220 g) were housed at a constant temperature (22° C.) and relative humidity (60%) with a fixed 12 hr. light/dark cycle, and free access to food and water. While the animals were anesthetized with Vrethane (5 ml/kg of 20% solution), the hair in an area of approximately 3.0 cm×3.0 cm on the abdomen was carefully trimmed using scissors, with caution not to damage the skin (rats with any visible sign of skin damage were not used). […] One hour after the phage administration blood was withdrawn from the tail vein and immediately assayed for phage titre according to manufacturer's protocol.
# [2] = test system: streptozotocin-induced diabetic rats; experiment: Transdermal insulin delivery: serum insulin and blood glucose; format: in vivo, rat; conditions: for transdermal activity for delivering insulin compared to TD-1 / Blood Glucose Mean: 500 μg peptide + 70 μg insulin topical; for transdermal activity for delivering insulin compared to TD-1: 5 hrs; for Blood Glucose Mean: 5 hr value as % of the 0 hr value
# Experimental: Insulin delivery: In particular, male Wistar rats were given intraperitoneal injection of straptozotocin (60 mg/kg; Sigma-Aldrich, St. Louis, […].) to make these rats in diabetic states. Seven to 10 days post injection blood glucose level was measured using One-Touch Ultra Glucometer (LifeScan, Milpitas, Calif.). The straptozocin-induced (SD-induced) diabetic rats with blood glucose level of over 20 mmol/l (normal rats are between 4 and 6 mmol/l) were selected and randomly assigned to different treatment groups, with 6 rats for each group. […] The SLA/PP is a chemical enhancer combination recently identified from high-throughput screening (Karande et al., […], Nature Biotech. 22:192). Moreover, in other transdermal treatment groups, 100 μl saline was given to each rat in that group. For the subcutaneous treatment group, 14 μg of insulin per rat was injected.
# Blood was drawn from the rat tail vein at these time points and assayed for blood glucose as described above and serum insulin by radioimmunoassay (Immunotech, Czech).
# Blood glucose and serum insulin were measured before and 5 hrs. after the administration as described above.
# male Sprague-Dawley rats [3] = experiment: Transdermal apomorphine delivery, APO-induced penile erections; format: in vivo, rat; conditions: for effect on APO transdermal delivery (APO-induced penile erections): peptide 2.0 mg/kg + APO 0.8 mg/kg, cream, 2 h observation
# Experimental: as §1, with “apomorphine (APO)” for “PT-141”
# Immediately after administration, rats were placed into individual polystyrene cages (32 cm long, 30 cm wide, 30 cm high) for behavioral observation. […] According to methods described by Berendsen and Broekkamp (1987, Eur. J. Pharmacol. 135(3):279-87), a penile erection was present when the following is observed: repeated pelvic thrust immediately followed by an upright position, an emerging engorged penis which the rat licks while eating the ejaculate.
# hair follicles = experiment: Microscopy of skin sections: hair follicle penetration; format: in vivo, rat; conditions: for follicular penetration of insulin-FITC: 10 μg insulin-FITC co-administered with enhancer, 2 h, abdominal skin
# Experimental: In particular, Insulin-FITC (Xi-an Huacheng, Xi-an, China) was dissolved in a small amount of DMF and subsequently diluted in saline for topical administration (final DMF concentration was <0.2%). […] After 2 hours the skin was carefully cleaned by 70% isopropyl alcohol and harvested by dissecting. The isolated skin was fixed with ice-cold 4% paraformaldehyde in 0.1 M phosphate buffer (PH 7.4) overnight. Following several washes with 10 mM phosphate-buffered saline (PBS PH7.4), skin samples were immersed in PBS containing 4.5% sucrose for 24 hours and then dehydrated in 10 mM PBS containing 30% sucrose till deposition. Floating horizontal and vertical sections with a thickness of 20 μm were obtained on a freezing microtome (CM1900 LEICA, Heidelberger, Nussloch, Germany). Cryosections were mounted onto poly-L-lysine-coated glasses, dried at room temperature and enveloped with 10 μl […] Mounting Medium (Vector Laboratories, Burlingame, Calif.). Fluorescence photomicrographs of the sections were obtained with OLYMPUS IX-70 microscope (OLYMPUS, Tokyo, Japan) using a filter set having excitation and emission length at 490-495 nm and 520-530 nm, respectively.
# ^125I-insulin = target: T1, ^125I-insulin (Sus scrofa, UniProt P01315); experiment: Direct interaction between coated TD-1 and ^125I-insulin; format: binding, porcine; conditions: up to 1 mg TD-1 per well
# T1 construct: purchased Beijing Atom HighTech
# Experimental: After extensive washing with PBST (PBS+0.1% Tween-20), radioactivity was measured with Gamma Radioimmunoassay Counter.
# insulin = target: T2, insulin (Sus scrofa, UniProt P01315); experiment: ELISA direct interaction between TD-1 and insulin (incl. reverse scheme); format: binding, porcine
# T2 construct: pharmaceutical-grade (>98%, 30 IU/mg) porcine insulin; purchased Xuzhou Pharmaceuticals
# Experimental: Insulin (100 μg) and a guinea pig anti-porcine insulin antibody (Atom High-Tech, used at 1:1000 dilution), in 100 μl of PBS, was added to each well and incubated for 2 hrs. at 37° C. After washing 6× with PBST, the plate was incubated with 1:2000 dilution of anti-guinea pig IgG conjugated with HRP (Chang-Dao Biotechnology Co. Ltd., Shanghai, China) for 1 hr. at 37° C. The plate was washed 6× with PBST, followed by the addition of 100 μl/well of TMB substrate. After incubation at room temperature for 10 mins and additional of stop solution (1 M H2SO4), absorbance was read at 450/630 nm in an ELISA reader. As a positive control, 1 ng to 1 μg of insulin was coated directly on the plates and was detected by the same procedure as described above. In areverse interaction scheme, ELISA plate wells were coated with 1 μg to 1 mg of insulin, blocked with BSA, incubated with TD-1-AngII fusion peptide (100 μg per well), incubated with rabbit polyclonal antibody against human angiotensin II (Atom High-Tech, used at 1:1000) and 1:2000 of anti-rabbit IgG conjugated with HRP (Zhong Shan Golden Bridge Biotechnology, Beijing, China), and finally assayed by TMB color reactionm using the same protocol as described above. The control for this reverse scheme experiment used 1 μg of TD-1-AngII coated directly to the wells.
# [4] = DLS measurements of insulin with or without TD-1; format: physicochemical
# Experimental: The solutions were transferred to a centrifuge tube and spun for 10 min at 10000 rpm. 40 μl of the supernatant were filtered by ANODISC™ membrane filter with a pore size of 0.02 μm (Whatman International, Maidstone, UK) and taken for DLS measurement using DynaPro™ MS 800 (Wyatt technology Corporation/Protein Solutions, Santa Barbara, Calif.).
# [5] = peptide topically co-administered with PH-1
# [6] = PT-141 160 μg/kg + peptide 240 μg/kg
# [7] = 500 μg TD-1 + 70 μg porcine insulin, topical
# [8] = co-administered with 70 μg insulin, 5 hours
# [9] = insulin-FITC 10 μg + TD-1, time course
# [10] = co-administered TD-1 fixed at 500 μg, 5 hours
# T2 sequence (P01315 25-54 limits assumed): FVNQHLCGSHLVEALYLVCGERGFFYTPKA
# T2 sequence (P01315 88-108 limits assumed): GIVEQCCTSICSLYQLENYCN
# T1 sequence (P01315 25-54 limits assumed): as the sequence (P01315 25-54 limits assumed) above
molecule,measurement,setting,value
"CCCC[C@H](NC(C)=O)C(=O)N[C@H]1CC(=O)NCCCC[C@@H](C(=O)O)NC(=O)[C@H](Cc2c[nH]c3ccccc23)NC(=O)[C@H](CCCNC(=N)N)NC(=O)[C@@H](Cc2ccccc2)NC(=O)[C@H](Cc2c[nH]cn2)NC1=O [PT-141, Ac-Nle-Asp-His-D-Phe-Arg-Trp-Lys-OH]","numbers of PEs, chasing and mounting",male Sprague-Dawley rats [1]; PT-141 160 μg/kg alone,did not significantly increase
"ACNATLPHQCG [AP-1, reference compound]",transdermal activity relative to phage PH-1,Male Wistar rats; 1 hour post topical administration,less than 0.2%
same,effect on transdermal activity of phages carrying the TD-2 peptide (PH-1),Male Wistar rats; [5],no effect
same,elevating serum insulin and lowering blood glucose levels,"[2]; control enhancer co-administered with 70 μg insulin, topical",ineffective
same,effect on APO transdermal delivery (APO-induced penile erections),male Sprague-Dawley rats [3],no effect
same,"numbers of PEs, chasing and mounting",male Sprague-Dawley rats [1]; [6],did not significantly increase
same,follicular penetration of insulin-FITC,hair follicles,did not lead to follicular penetration
ACSASPSKHCG [TD-24],transdermal activity for delivering insulin compared to TD-1,[2],statistically significant loss of activity
same,Blood Glucose Mean,[2],82.17%
ACSSSASKHCG [TD-3],transdermal activity for delivering insulin compared to TD-1,[2],almost completely loss of activity
same,Blood Glucose Mean,[2],89.80%
ACSSSPAKHCG [TD-6],transdermal activity for delivering insulin compared to TD-1,[2],statistically significant loss of activity
same,Blood Glucose Mean,[2],66.65%
ACSSSPSAHCG [TD-22],transdermal activity for delivering insulin compared to TD-1,[2],statistically significant loss of activity
same,Blood Glucose Mean,[2],85.90%
ACSSSPSDHCG [TD-4],transdermal activity for delivering insulin compared to TD-1,[2],almost completely loss of activity
same,Blood Glucose Mean,[2],89.68%
ACSSSPSKACG [TD-23],transdermal activity for delivering insulin compared to TD-1,[2],statistically significant loss of activity
same,Blood Glucose Mean,[2],81.36%
ACSSSPSKHCG [TD-1],tested rats in which enhanced transdermal penetration of a control phage was observed,"Male Wistar rats; co-administered with control phage, data not shown",20%
same,amount that completely abolished the transdermal activity of PH-1,Male Wistar rats; [5],over 5 μg
same,effect on transdermal activity of phages carrying the TD-2 peptide (PH-1),Male Wistar rats; [5],dose-dependent manner
same,time at which decrease of blood glucose was seen,[2]; [7],2 h
same,time of lowest blood glucose level,[2]; [7],8 h
same,lowest blood glucose level,"[2]; 500 μg TD-1 + 70 μg porcine insulin, topical, at 8 hours",< 25 % of the initial blood glucose level
same,effect on blood glucose or serum insulin level,"[2]; 500 μg TD-1 alone, without insulin, topical",no effect
same,Blood Glucose Mean,[2],38.68%
same,TD-1 amount at which transdermal-enhancing effect reached maximum,[2]; [8],> 500 µg
same,TD-1 amount without significant insulin-elevating and glucose-lowering effect,[2]; [8],< 20 µg
same,time at which most PEs occurred,male Sprague-Dawley rats [3]; APO 0.8 mg/kg + TD-1 2.0 mg/kg,during the second hour
same,number of PEs,male Sprague-Dawley rats [3]; TD-1 0.4 mg/kg + APO 0.8 mg/kg,did not significantly increase
same,transdermal-enhancing effect (number of PEs),"male Sprague-Dawley rats [3]; TD-1 0.8, 2.0 and 3.2 mg/kg + APO 0.8 mg/kg",reached maximum
same,effect on APO transdermal delivery (APO-induced penile erections),male Sprague-Dawley rats [3],facilitates transdermal APO delivery
same,"numbers of PEs, chasing and mounting",male Sprague-Dawley rats [1]; [6],significantly increased
same,follicular penetration of insulin-FITC,hair follicles,penetration of insulin-FITC deep into hair follicles
same,relation of waiting period to extent of follicular penetration of insulin-FITC,"hair follicles; TD-1 5 min, washed, waiting 0-60 min before insulin-FITC",inversely proportional
same,duration of follicular penetration of insulin-FITC,hair follicles; [9],at least 24 hours
same,earliest time follicular penetration of insulin-FITC detectable,hair follicles; [9],30 min
same,time of maximum follicular penetration of insulin-FITC,hair follicles; [9],2 h
same,^125I-insulin bound to wells precoated with TD-1,^125I-insulin,No significant radioactivity above the background level
same,direct binding to insulin (conclusion of binding assays),insulin,does not bind insulin directly
same,insulin bound to precoated TD-1,"insulin; wells coated with increasing amounts of TD-1, 100 μg insulin",No significant amount of insulin was found to bind
ACSSSSSKHCG [TD-10],transdermal activity for delivering insulin compared to TD-1,[2],"only a slight, insignificant decrease in activity"
same,Blood Glucose Mean,[2],53.79%
CSSSPSKHC [TD-2],transdermal activity for delivering insulin compared to TD-1,[2],statistically significant loss of activity
same,Blood Glucose Mean,[2],68.44%
"insulin: pharmaceutical-grade (>98%, 30 IU/mg) porcine insulin (Xuzhou Pharmaceuticals)",duration of insulin-elevating and glucose-lowering effect,"[2]; 14 μg insulin, subcutaneous injection",less than 5 hours
same,insulin amount needed to achieve the maximum response,[2]; [10],≥ 70 µg
same,insulin amount sufficient to significantly enhance serum insulin and lower blood glucose,[2]; [10],35 µg
same,MW-R Mean,"[4]; pH 2.0, saline","14,585 Da"
same,Radius Mean,"[4]; pH 2.0, saline",1.9 nm
same,MW-R Mean,"[4]; pH 2.0, saline, listed as Ins",14585 Da
same,MW-R Mean,"[4]; pH 3.0, saline","20,343 Da"
same,Radius Mean,"[4]; pH 3.0, saline",2.2 nm
same,MW-R Mean,"[4]; pH 3.0, saline, listed as Ins",20343 Da
same,MW-R Mean,"[4]; pH 7.0, saline","32,328 Da"
same,Radius Mean,"[4]; pH 7.0, saline",2.6 nm
same,MW-R Mean,"[4]; pH 7.0, saline, listed as Ins",32328 Da
